Source: patent US7439415B2, “Population of Hoxb8 mutants and uses in identifying agents for treating repetitive behaviors” (priority 2001, dated 2008)
Where a name gives a salt, the structure may show the parent alone.

Tested on: Hoxb8 mutant animals
Experiment: Fluoxetine treatment of Hoxb8 mutant mice with excessive grooming (induced grooming assay / hair regrowth)
Format: in vivo, mouse
Conditions: 10 mg/kg/day via Alzet mini-osmotic pumps, thirty days of treatment

CNCCC(Oc1ccc(C(F)(F)F)cc1)c1ccccc1 (stereo not shown) [Flu, Fluoxetine-HCl]
hair regrowth / efficacy against excessive grooming behavior: exhibited signs of hair regrowth
